The text below walks through data of patent US6869964B2, “Heterocyclicsulfonamide hepatitis C virus inhibitors” (Bristol-Myers Squibb Company, priority 2002, dated 2005).

Test [1] concerns HCV replicon in Huh7 cells. Put plainly: HCV replicon cell-based assay (FRET). Details: species or system HCV strain 1B. The settings on record: Hepatitis C virus, Huh-7; replicon, activity range; read-out: EC50 a, b, c (Activity Table). An excerpt:
HCV Replicon Cell-based Assay
An HCV replicon whole cell system was established as described by Lohmann V, Korner F, Koch J, Herian U, Theilmann L, Bartenschlager R., Science 285(5424): 110-3 (1999). This system enabled us to evaluate the effects of our HCV Protease compounds on HICV RNA replication. Briefly, using the HCV strain 1B sequence described in the Lohmann paper (Assession number: AJ238799), an HCV cDNA was generated encoding the 5′ internal ribosome entry site (IRES), the neomycin resistance gene, the EMCV (encephalomyocarditis virus)-IRES and the HCV nonstructural proteins, NS3-NS5B, and 3′ non-translated region (NTR). In vitro transcripts of the cDNA were transfected into the human hepatoma cell line, Huh7. […] Resulting cell lines were characterized for positive and negative strand RNA production and protein production over time.
Huh7 cells, constitutively expressing the HCV replicon, were grown in Dulbecco's Modified Eagle Media (DMEM) containing 10% Fetal calf serum (FCS) and 1 mg/ml G418 (Gibco-BRL). Cells were seeded the night before (1.5×10^4 cells/well) in 96-well tissue-culture sterile plates. Compound and no compound controls were prepared in DMEM containing 4% FCS, 1:100 Penicillin/Streptomysin, 1:100 L-glutamine and 5% DMSO in the dilution plate (0.5% DMSO final concentration in the assay). Compound/DMSO mixes were added to the cells and incubated for 4 days at 37° C. After 4 days, plates were rinsed thoroughly with Phosphate-Buffered Saline (PBS) (3 times 150 μl). The cells were lysed with 25 μl of a lysis assay reagent containing the FRET peptide (RET S1, as described for the in vitro enzyme assay). The lysis assay reagent was made from 5× cell Luciferase cell culture lysis reagent(Promega #E153A) diluted to 1× with distilled water, NaCl added to 150 mM final, the FRET peptide diluted to 10 μM final from a 2 mM stock in 100% DMSO. The plate was then placed into the Cytofluor 4000 instrument which had been set to 340 nm excitation/490 emission, automatic mode for 21 cycles and the plate read in a kinetic mode. EC50 determinations were carried out as described for the IC50 determinations.

The target in test [2] is T1, HCV NS3/4A protease complex (BMS strain) (Hepatitis C virus genotype 1a, UniProt P27958, C1454S).
T1 construct: HCV NS3/4A protease complex (amino acids 1027 to 1711); inferred from pET21b vector and Ni-NTA purification; made in house; host or cells: Escherichia coli BL21 (DE3), pET21b
Description: Recombinant HCV NS3/4A protease complex FRET peptide assay, BMS strain. It is filed as biochemical, HCV genotype 1a. To be noted: NS3/4A BMS Strain, activity range; read-out: IC50 a, b, c (Activity Table). An excerpt:
Recombinant HCV NS3/4A Protease Complex FRET Peptide Assay
The purpose of this in vitro assay was to measure the inhibition of HCV NS3 protease complexes, derived from the BMS, H77C or J4l6S strains, as described below, by compounds of the present invention. This assay provides an indication of how effective compounds of the present invention would be in inhibiting HCV proteolytic activity.
Serum from an HCV-infected patient was obtained from Dr. T. Wright, San Francisco Hospital. An engineered full-length cDNA template of the HCV genome (BMS strain) was constructed from DNA fragments obtained by reverse transcription-PCR (RT-PCR) of serum RNA and using primers selected on the basis of homology between other genotype la strains. From the determination of the entire genome sequence, a genotype la was assigned to the HCV isolate according to the classification of Simmonds et al. (See P Simmonds, K A Rose, S Graham, S W Chan, F McOmish, B C Dow, E A Follett, P L Yap and H Marsden, J. Clin. Microbiol., 31(6), 1493-1503 (1993)). […] The infectious clones, H77C (1a genotype) and J4 L6S (1b genotype) were obtained from R. Purcell (NIH) and the sequences are published in Genbank (AAB67036, see Yanagi, M., Purcell, R. H., Emerson, S. U. and Bukh, J. Proc. Natl. Acad. Sci. U.S.A. 94(16),8738-8743 (1997); AF054247, see Yanagi, M., St Claire, M., Shapiro, M., Emerson, S. U., Purcell, R. H. and Bukh, J, Virology 244 (1), 161-172. (1998)).
The BMS, H77C and J4 L6S strains were used for production of recombinant NS3/4A protease complexes. DNA encoding the recombinant HCV NS3/4A protease complex (amino acids 1027 to 1711) for these strains were manipulated as described by P. Gallinari et al. (see Gallinari P, Paolini C, Brennan D, Nardi C, Steinkuhler C, De Francesco R. Biochemistry. 38(17):5620-32, (1999)). Briefly, a three-lysine solubilizing tail was added at the 3′-end of the NS4A coding region. The cysteine in the P1 position of the NS4A-NS4B cleavage site (amino acid 1711) was changed to a glycine to avoid the proteolytic cleavage of the lysine tag. Furthermore, a cysteine to serine mutation was introduced by PCR at amino acid position 1454 to prevent the autolytic cleavage in the NS3 helicase domain. The variant DNA fragment was cloned in the pET21b bacterial expression vector (Novagen) and the NS3/4A complex was expressed in Escherichia coli strain BL21 (DE3) (Invitrogen) following the protocol described by P. Gallinari et al. (see Gallinari P, Brennan D, Nardi C, Brunetti M, Tomei L, Steinkuhler C, De Francesco R., J Virol. 72(8):6758-69 (1998)) with modifications. Briefly, NS3/4A expression was induced with 0.5 mM Isopropyl β-D-1-thiogalactopyranoside (IPTG) for 22 hr at 20° C. A typical fermentation (10 L) yielded approximately 80 g of wet cell paste. The cells were resuspended in lysis buffer (10 mL/g) consisting of 25 mM N-(2-Hydroxyethyl)Piperazine-N′-(2-Ethane Sulfonic acid) (HEPES), pH7.5, 20% glycerol, 500 mM Sodium Chloride (NaCl), 0.5% Triton-X100, 1 ug/ml lysozyme, 5 mM Magnesium Chloride (MgCl2), 1 ug/ml DnaseI, 5 mM β-Mercaptoethanol (βME), Protease inhibitor—Ethylenediamine Tetraacetic acid (EDTA) free (Roche), homogenized and incubated for 20 mins at 4° C. The homogenate was sonicated and clarified by ultra-centrifugation at 235000 g for lhr at 4° C. Imidazole was added to the supernatant to a final concentration of 15 mM and the pH adjusted to 8.0. The crude protein extract was loaded on a Nickel—Nitrilotriacetic acid (Ni—NTA) column pre-equilibrated with buffer B (25 mM HEPES, pH8.0, 20% glycerol, 500 mM NaCl, 0.5% Triton-X100, 15 mM imidazole, 5 mM βME). The sample was loaded at a flow rate of 1 mL/min. The column was washed with 15 column volumes of buffer C (same as buffer B except with 0.2% Triton-X100). The protein was eluted with 5 column volumes of buffer D (same as buffer C except with 200 mM Imidazole). […]

T1 sequence (P27958 1027-1657 C1454S): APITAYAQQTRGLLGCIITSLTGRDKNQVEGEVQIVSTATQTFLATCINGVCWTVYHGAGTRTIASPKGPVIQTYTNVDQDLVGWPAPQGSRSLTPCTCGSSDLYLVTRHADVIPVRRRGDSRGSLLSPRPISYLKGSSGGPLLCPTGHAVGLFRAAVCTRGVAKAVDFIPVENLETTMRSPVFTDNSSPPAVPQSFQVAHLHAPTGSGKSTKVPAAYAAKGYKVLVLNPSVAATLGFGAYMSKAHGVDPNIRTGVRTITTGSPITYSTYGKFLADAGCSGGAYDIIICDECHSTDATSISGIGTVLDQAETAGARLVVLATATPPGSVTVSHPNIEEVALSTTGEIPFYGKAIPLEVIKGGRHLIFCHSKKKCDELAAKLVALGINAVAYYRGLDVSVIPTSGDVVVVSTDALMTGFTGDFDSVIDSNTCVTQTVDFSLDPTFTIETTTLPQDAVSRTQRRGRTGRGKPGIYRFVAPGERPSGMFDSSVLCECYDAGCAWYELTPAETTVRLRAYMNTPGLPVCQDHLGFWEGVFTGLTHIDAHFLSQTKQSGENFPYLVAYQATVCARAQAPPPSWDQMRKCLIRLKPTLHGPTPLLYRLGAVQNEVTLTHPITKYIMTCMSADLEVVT
T1 sequence (P27958 1658-1711 partner, looked up, stated change not applied): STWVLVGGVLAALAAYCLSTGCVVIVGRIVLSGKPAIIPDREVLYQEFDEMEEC

Consider `C=CC1C[C@]1(NC(=O)[C@@H]1C[C@@H](Oc2cc(-c3ccccc3)nc3cc(OC)ccc23)CN1C(=O)[C@@H](NC(=O)OC(C)(C)C)C(C)(C)C)C(=O)NS(=O)(=O)c1ccc(C)cn1` (stereo in doubt) [Compound 10, (1-{4-(7-Methoxy-2-phenyl-quinolin-4-yloxy)-2-[1-(5-methyl-pyridine-2-sulfonylaminocarbonyl)-2-vinylcyclopropylcarbamoyl]pyrrolidine-1-carbonyl}-2,2-dimethylpropyl)carbamic acid tert-butyl ester], for which the EC50 in test [1] is 0.1 to 1 µM. Also, the IC50 in test [2] is less than 0.1 µM.

As for `C=CC1C[C@]1(NC(=O)[C@@H]1C[C@@H](Oc2cc(-c3ccccc3)nc3cc(OC)ccc23)CN1C(=O)[C@@H](NC(=O)OC(C)(C)C)C(C)(C)C)C(=O)NS(=O)(=O)c1cc(Br)c(Cl)s1` (stereo in doubt) [Compound 7, {1-[2-{1-[4-Bromo-5-chlorothiophene-2-sulfonylamino-carbonyl]-2-vinylcyclopropylcarbamoyl}-4-(7-methoxy-2-phenyl-quinolin-4-yloxy)pyrrolidine-1-carbonyl]-2,2-dimethylpropyl}carbamic acid tert-butyl ester], the EC50 in test [1] is 1 to 10 µM. In addition, the IC50 in test [2] was less than 0.1 µM.
